Assay results published in US8945540B2, “Compositions for enhancing the antibacterial activity of myeloperoxidase and methods of use thereof” (Exoxemis, Inc., priority 2008, dated 2015).
Like-named read-outs stand apart in the source and are kept apart here.

Experiments:
Staphylococcus aureus [1] = experiment: Microbicidal activity of the myeloperoxidase system (p-MPO, glucose oxidase, glucose) with amino acids in the presence of blood, CFU plate counts; synergy determination from these CFU; assay type: cell-based; settings: for Average Viability CFU/ml 60 min / Log Reduction 60 min / enhancement of MPO microbicidal activity (in words) / Log 10 (CFU + 1) Survivors 60 min: MPO 38 U/ml, GO 33.3 U/ml; for Average Viability CFU/ml 50 min / Log Reduction 50 min: MPO 4.7 U/ml, GO 4.2 U/ml; for enhancement of MPO microbicidal activity (in words): amino acid 5 mM
Experimental: Bacterial suspensions, specifically Staphylococcus aureus in this example, were prepared by the shake flask method to achieve late log to early stationary phase growth. Bacteria were grown 24 hours in trypticase soy broth (TSB) at 35° C. The cultures were centrifuged at 4,000 rpm for 10 minutes and the supernatants removed. The pellet was collected and washed twice with sterile 0.9% normal saline (NS). The washed microorganisms were suspended and diluted with normal saline to a 3 McFarland standard, i.e., approximately 10^9 bacteria colony forming units (CFU) per mL. Actual colony counts are confirmed by serial dilutions (10^−1 to 10^−5 or 10^−6) plated on TSA and incubated overnight at 35° C. To obtain an approximate final working target inoculum of 10^7 CFU/mL, 15 microliters of organisms per mL of final reaction mixture are used.
Glucose oxidase (GO) from Aspergillus Niger was purchased from Biozyme, Inc., UK, Cat #GO3A, 270 U/mg). Porcine Myeloperoxidase (p-MPO) (Exoxemis, Inc., Little Rock, Ark. U.S.A., 375 U/mg). Sterile stock solutions of D-glucose and sodium chloride were prepared and used at a final concentration of 150 mM each. L-Lysine hydrochloride (Spectrum Chemical Cat #L1142) was prepared as a 100 mM stock solution. Catalase (Sigma, Cat #C-40) was prepared as a 1% stock solution in sterile 0.9% normal saline. Blood was collected by venipuncture and used as whole blood within the same day.
Staphylococcus aureus were used to give a final target concentration of 2-3×10^7 CFU (7.4 log 10) per mL and venous whole blood was used to give a final concentration of 3%. Glucose was added to the reaction mixtures to a final concentration of 150 mM, which initiated the microbicidal reaction. The final volume of the reaction mixtures was 1 mL. The reactions were allowed to run from 30 minutes to 2 hours, as needed, at room temperature or at 37° C. in a dry bath. At the specified time points the reaction mixtures were treated with 100 microliters of a catalase solution, containing a minimum of 100 units/μL, to consume remaining peroxide and terminate the oxidative killing. Serial dilution plate counts were performed from the contents of each vial in sterile saline and inoculated onto trypticase soy agar (TSA) for quantitative culture. Plates were then incubated at 37° C. and counts taken at 24 hours. […] The results are shown in Table 1, as the average of 2 replicates.
The amino acids alone, in the absence of MPO were tested to rule out their microbicidal activity. The results are shown in Table 2 to Table 6, as the average of 2 replicates.
The amino acid analogues alone, in the absence of MPO, were tested to rule out their microbicidal activity. […]
The effect of two-way combinations of individual amino acids with L-isoleucine, as potential enhancing agents, for MPO microbicidal action in the presence of blood, was therefore examined by following the procedure of Example 5.
The Actual CFU observed for the pair is then divided by the Predicted CFU and multiplied by 100 to calculate the % of Predicted value. This value is then to be compared to the threshold value, discussed in the next section, to determine whether the pair are synergistic, antagonistic, or additive.
Calculation of appropriate threshold values for determination of synergism and antagonism was based upon the variability of replicated CFU survivor measures.

Staphylococcus aureus [2] = experiment: Control: microbicidal activity of the amino acid or analogue alone (no glucose, MPO, glucose oxidase) in the presence of blood; assay type: cell-based; settings: for log reduction at 5000 µM: Staphylococcus aureus, 1 h, read-out: Log Reduction 60 min
Excerpt: As a control to determine the microbicidal activity of the amino acids alone, the foregoing procedure was followed without replication, except in the absence of glucose, MPO, and glucose oxidase.

[3] = Table 7, amino acid analogue 5 mM, blood
[4] = amino acid analogue alone 5 mM, MPO 0, GO 0, no glucose, blood
[5] = MPO 100 μg/mL, AA 20 mM, 30 min
[6] = MPO 100 μg/mL, AA 20 mM, 60 min
[7] = Table 5, amino acid 5 mM (none: 0 mM), blood
[8] = Table 10, single amino acid 2.5 mM, in the presence of blood, 50 min
[9] = Table 11, single amino acid 2.5 mM, in the presence of blood, 50 min
[10] = Table 14, single amino acid 2.5 mM, in the presence of blood, 50 min
[11] = amino acid alone 5 mM, MPO 0, GO 0, no glucose, blood, without replication
[12] = Table 4, amino acid 5 mM (none: 0 mM), blood
[13] = Table 2, amino acid 5 mM (none: 0 mM), blood
[14] = Table 13, single amino acid 2.5 mM, in the presence of blood, 50 min
[15] = Table 3, amino acid 5 mM (none: 0 mM), blood
[16] = Table 19, amino acid (racemic, L- or D-form) 2.5 mM, 50 min
[17] = single amino acid 2.5 mM, blood
[18] = Table 19, amino acid 3.5 mM, 50 min

SMILES | Log 10 (CFU + 1) Survivors (Staphylococcus aureus [1]; MPO 25 μg/mL, AA 5 mM, 30 min) | Log 10 (CFU + 1) Survivors (Staphylococcus aureus [1]; MPO 25 μg/mL, AA 5 mM, 60 min) | Log 10 (CFU + 1) Survivors (Staphylococcus aureus [1]; MPO 25 μg/mL, AA […], 30 min) | Log 10 (CFU + 1) Survivors (Staphylococcus aureus [1]; MPO 25 μg/mL, AA […], 60 min) | Log 10 (CFU + 1) Survivors (Staphylococcus aureus [1]; MPO 100 μg/mL, AA 5 mM, 30 min) | Log 10 (CFU + 1) Survivors (Staphylococcus aureus [1]; MPO 100 μg/mL, AA 5 mM, 60 min) | Log 10 (CFU + 1) Survivors (Staphylococcus aureus [1]; [5]) | Log 10 (CFU + 1) Survivors (Staphylococcus aureus [1]; [6]) | Average Viability CFU/ml 50 min (Staphylococcus aureus [1]; [8]) [CFU/ml] | Log Reduction 50 min (Staphylococcus aureus [1]; [8]) | Average Viability CFU/ml 50 min (Staphylococcus aureus [1]; [9]) [CFU/ml] | Log Reduction 50 min (Staphylococcus aureus [1]; [9]) | log reduction at 5000 µM (Staphylococcus aureus [2]) | Average Viability CFU/ml 60 min (Staphylococcus aureus [2]; [11]) [CFU/ml] | Average Viability CFU/ml 60 min (Staphylococcus aureus [1]; [12]) [CFU/ml] | Log Reduction 60 min (Staphylococcus aureus [1]; [12]) | log reduction at 5000 µM (Staphylococcus aureus [2]; [11]) | other results
CNCC(=O)OC.Cl [Sarcosine methyl ester hydrochloride] |  |  |  |  |  |  |  |  |  |  |  |  |  |  |  |  |  | Average Viability CFU/ml 60 min (Staphylococcus aureus [1]; [3]): 0 CFU/ml; Log Reduction 60 min (Staphylococcus aureus [1]; [3]): 7.4; log reduction at 5000 µM (Staphylococcus aureus [2]; [4]): 0; Average Viability CFU/ml 60 min (Staphylococcus aureus [2]; [4]): 23200000 CFU/ml
N=C(N)NCCC[C@@H](N)C(=O)O [D-Arginine] | 6.9 | 6.7 | 7.0 | 5.9 | 6.9 | 0.0 | 7.0 | 6.8 | 14200000 | 0.2 | 14650000 | 0.3 | 0.1 | 21500000 |  |  |  | Average Viability CFU/ml 60 min (Staphylococcus aureus [1]; [7]): 0 CFU/ml; Log Reduction 60 min (Staphylococcus aureus [1]; [7]): 7.4; Average Viability CFU/ml 50 min (Staphylococcus aureus [1]; [10]): 15000000 CFU/ml; Log Reduction 50 min (Staphylococcus aureus [1]; [10]): 0.3; enhancement of MPO microbicidal activity (in words) (Staphylococcus aureus [1]; blood): highly active
NCCCC[C@@H](N)C(=O)O [D-Lysine] |  |  |  |  |  |  |  |  |  |  |  |  | 0 | 25100000 | 5050000 | 0.7 |  | 
O=C(O)[C@H]1CCCN1 [D-Proline] | 6.9 | 2.4 | 7.3 | 3.7 | 5.7 | 2.7 | 4.8 | 0.0 |  |  | 1890000 | 1.2 |  | 21400000 | 830 | 4.5 | 0.1 | 
COC(=O)[C@H](C)N [L-Ala methyl ester, L-Alanine methyl ester] | 7.3 | 0.0 | 7.3 | 0.0 | 0.0 | 0.0 | 0.0 | 0.0 | 7250000 | 0.5 |  |  |  | 24300000 | 0 | 7.4 | 0 | 
N[C@@H](CO)C(=O)O [L-Serine] | 5.0 | 0.0 | 6.8 | 1.8 | 5.0 | 0.0 | 5.8 | 0.0 | 1175000 | 1.3 |  |  |  | 24100000 |  |  | 0 | Average Viability CFU/ml 60 min (Staphylococcus aureus [1]; [13]): 0 CFU/ml; Log 10 (CFU + 1) Survivors 60 min (Staphylococcus aureus [1]; [13]): 0.0; Log Reduction 60 min (Staphylococcus aureus [1]; [13]): 7.4; Average Viability CFU/ml 50 min (Staphylococcus aureus [1]; [14]): 835000 CFU/ml; Log Reduction 50 min (Staphylococcus aureus [1]; [14]): 1.5; Average Viability CFU/ml 50 min (Staphylococcus aureus [1]; [10]): 940000 CFU/ml; Log Reduction 50 min (Staphylococcus aureus [1]; [10]): 1.5
NC(=O)C[C@H](N)C(=O)O [L-Asparagine] |  |  |  |  |  |  |  |  |  |  |  |  |  | 21800000 |  |  | 0 | Average Viability CFU/ml 60 min (Staphylococcus aureus [1]; [15]): 5950000 CFU/ml; Log 10 (CFU + 1) Survivors 60 min (Staphylococcus aureus [1]; [15]): 6.8; Log Reduction 60 min (Staphylococcus aureus [1]; [15]): 0.6
N=C(N)NCCC[C@H](N)C(=O)O [L-Arginine] |  |  |  |  |  |  |  |  |  |  |  |  | 0 | 23600000 |  |  |  | Average Viability CFU/ml 60 min (Staphylococcus aureus [1]; [13]): 5450000 CFU/ml; Log 10 (CFU + 1) Survivors 60 min (Staphylococcus aureus [1]; [13]): 6.7; Log Reduction 60 min (Staphylococcus aureus [1]; [13]): 0.6; enhancement of MPO microbicidal activity (in words) (Staphylococcus aureus [1]; blood): essentially inactive
CSCC[C@@H](N)C(=O)O [D-Methionine] |  |  |  |  |  |  |  |  |  |  |  |  |  | 21100000 |  |  | 0.1 | Average Viability CFU/ml 60 min (Staphylococcus aureus [1]; [7]): 9400000 CFU/ml; Log Reduction 60 min (Staphylococcus aureus [1]; [7]): 0.4
CC[C@@H](C)[C@@H](N)C(=O)O [D-Isoleucine] | 0.0 | 0.0 | 6.0 | 1.1 | 0.0 | 0.0 | 0.0 | 0.0 |  |  | 196000 | 2.1 |  | 21300000 |  |  | 0.1 | Average Viability CFU/ml 60 min (Staphylococcus aureus [1]; [7]): 0 CFU/ml; Log Reduction 60 min (Staphylococcus aureus [1]; [7]): 7.4; Average Viability CFU/ml 50 min (Staphylococcus aureus [1]; [16]): 196000 CFU/ml; Log Reduction 50 min (Staphylococcus aureus [1]; [16]): 2.1; Average Viability CFU/ml 50 min (Staphylococcus aureus [1]; [17]): 196000 CFU/ml; Log Reduction 50 min (Staphylococcus aureus [1]; [17]): 2.1; CFU survivors, amino acid acting separately (Staphylococcus aureus [1]; standard conditions of Example 5 (2.5 μmol/mL; MPO 4.7 U/mL; GO 4.2 U/mL)): 196000 CFU
O=CC(=O)O [Glyoxylic acid] |  |  |  |  |  |  |  |  |  |  |  |  |  | 22200000 | 610000 | 1.6 | 0.1 | 
N[C@@H](Cc1c[nH]c2ccccc12)C(=O)O [L-Tryptophan] |  |  |  |  |  |  |  |  |  |  |  |  | 0 | 21600000 |  |  |  | Average Viability CFU/ml 60 min (Staphylococcus aureus [1]; [13]): 21150000 CFU/ml; Log 10 (CFU + 1) Survivors 60 min (Staphylococcus aureus [1]; [13]): 7.3; Log Reduction 60 min (Staphylococcus aureus [1]; [13]): 0.1
CC[C@H](C)[C@H](N)C(=O)O [L-Isoleucine] | 0.0 | 0.0 | 2.1 | 0.0 | 0.0 | 0.0 | 0.0 | 0.0 | 159500 | 2.2 | 155500 | 2.2 |  | 20500000 |  |  | 0 | Average Viability CFU/ml 60 min (Staphylococcus aureus [1]; [15]): 0 CFU/ml; Log 10 (CFU + 1) Survivors 60 min (Staphylococcus aureus [1]; [15]): 0.0; Log Reduction 60 min (Staphylococcus aureus [1]; [15]): 7.3; Average Viability CFU/ml 50 min (Staphylococcus aureus [1]; [10]): 117000 CFU/ml; Log Reduction 50 min (Staphylococcus aureus [1]; [10]): 2.4; Average Viability CFU/ml 50 min (Staphylococcus aureus [1]; [18]): 129333 CFU/ml; Log Reduction 50 min (Staphylococcus aureus [1]; [18]): 2.3; Average Viability CFU/ml 50 min (Staphylococcus aureus [1]; [17]): 73000 CFU/ml; Log Reduction 50 min (Staphylococcus aureus [1]; [17]): 2.5
